For data set [1], the target named is T1, α2C Human Adrenergic Receptor (Homo sapiens, UniProt P18825).
T1 sequence (P18825 1-462): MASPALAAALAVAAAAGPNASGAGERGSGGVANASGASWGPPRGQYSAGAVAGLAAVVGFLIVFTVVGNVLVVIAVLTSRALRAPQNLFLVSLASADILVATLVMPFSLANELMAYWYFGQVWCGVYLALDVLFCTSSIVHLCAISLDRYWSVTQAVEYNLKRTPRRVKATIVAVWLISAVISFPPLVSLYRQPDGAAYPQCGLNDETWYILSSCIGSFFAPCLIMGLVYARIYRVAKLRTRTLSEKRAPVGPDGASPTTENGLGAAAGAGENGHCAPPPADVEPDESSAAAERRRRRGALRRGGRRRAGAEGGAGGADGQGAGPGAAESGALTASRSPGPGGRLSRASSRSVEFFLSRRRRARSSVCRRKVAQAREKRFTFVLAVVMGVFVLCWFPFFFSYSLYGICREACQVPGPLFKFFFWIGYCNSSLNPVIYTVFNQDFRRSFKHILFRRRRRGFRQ
As to the kind of experiment: Equilibrium competition binding, [3H] rauwolscine, membranes of transfected LM(tk-) cells.

The target of data set [2] is T2, α2B Human Adrenergic Receptor (Homo sapiens, UniProt P18089).
T2 construct: expressed in transfected cells; host or cells: Y-1 cells
T2 sequence (P18089 1-450): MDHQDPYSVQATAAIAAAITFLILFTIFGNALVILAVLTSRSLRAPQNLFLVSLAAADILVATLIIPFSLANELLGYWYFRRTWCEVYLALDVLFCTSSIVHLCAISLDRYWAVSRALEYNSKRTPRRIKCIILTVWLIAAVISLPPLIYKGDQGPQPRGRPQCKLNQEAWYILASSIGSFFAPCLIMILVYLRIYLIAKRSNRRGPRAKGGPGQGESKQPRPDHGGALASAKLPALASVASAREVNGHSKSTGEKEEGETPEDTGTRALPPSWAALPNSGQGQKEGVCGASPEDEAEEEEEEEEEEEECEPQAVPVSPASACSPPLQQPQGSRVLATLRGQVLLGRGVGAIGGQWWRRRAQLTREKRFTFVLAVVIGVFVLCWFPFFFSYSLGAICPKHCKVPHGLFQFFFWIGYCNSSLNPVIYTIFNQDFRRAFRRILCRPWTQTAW
As to the kind of experiment: Equilibrium competition binding, [3H] rauwolscine, membranes of transfected Y-1 cells. As to the method: (§1) Binding and functional assays were performed using stably transfected human alpha adrenergic receptors. Equilibrium competition binding assays were performed with membrane preparations from cultured LM(tk-) cells stably transfected with the cloned human adrenoceptor subtypes except for α2b, which was expressed in Y-1 cells, using [^3H] prazosin for α1 receptors and [^3H] rauwolscine for α2 receptors.
(§2) Stable cell lines were selected as described above.
(§3) Transfected cells from culture flasks were scraped into 5 ml of 5 mM Tris-HCl, 5 mM EDTA, pH 7.5, and lysed by sonication. The cell lysates were centrifuged at 1000 rpm for 5 min at 4° C., and the supernatant was centrifuged at 30,000×g for 20 min at 4° C. The pellet was suspended in 50 mM Tris-HCl, 1 mM MgCl2, and 0.1% ascorbic acid at pH 7.5. Binding of α2 antagonist [^3H] rauwolscine ([…]) to membrane preparations of LM(tk-) cells was done in a final volume of 0.25 ml and incubated at 37° C. for 20 min. Nonspecific binding was determined in the presence of 10 μM phentolamine. The reaction was stopped by filtration through GF/B filters using a cell harvester.

For data set [3], the target named is T3, α1B Human Adrenergic Receptor (Homo sapiens, UniProt P35368).
T3 construct: The entire coding region of α1B(1563 bp); expressed in transfected cells; host or cells: LM(tk-) cells
T3 sequence (P35368 1-520): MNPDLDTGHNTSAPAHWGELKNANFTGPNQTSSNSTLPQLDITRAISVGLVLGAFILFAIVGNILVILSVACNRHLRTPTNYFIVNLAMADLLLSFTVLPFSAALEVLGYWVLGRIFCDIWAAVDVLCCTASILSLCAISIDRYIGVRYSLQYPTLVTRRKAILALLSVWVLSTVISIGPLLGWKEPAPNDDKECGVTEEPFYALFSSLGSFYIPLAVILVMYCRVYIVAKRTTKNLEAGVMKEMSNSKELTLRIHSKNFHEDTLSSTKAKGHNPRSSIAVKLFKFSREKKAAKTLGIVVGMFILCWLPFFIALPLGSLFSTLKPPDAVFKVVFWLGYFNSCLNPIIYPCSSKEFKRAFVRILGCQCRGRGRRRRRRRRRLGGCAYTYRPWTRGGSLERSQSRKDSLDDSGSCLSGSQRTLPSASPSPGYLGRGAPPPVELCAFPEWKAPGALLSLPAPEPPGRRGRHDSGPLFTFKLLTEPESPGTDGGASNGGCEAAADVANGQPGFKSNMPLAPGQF
As to the kind of experiment: Equilibrium competition binding, [3H] prazosin, membranes of transfected LM(tk-) cells. Conditions: cloned human receptor, [3H] prazosin. Here is the method: as §1, §3
The construct involved ligating the full-length containing EcoRI brainstem cDNA fragment from ZapII into the expression vector. The stable cell lines were selected as described above.

The target in data set [4] is T4, α1A Human Adrenergic Receptor (Homo sapiens, UniProt P25100).
T4 construct: expressed in transfected cells; host or cells: LM(tk-) cells
T4 sequence (P25100 1-572): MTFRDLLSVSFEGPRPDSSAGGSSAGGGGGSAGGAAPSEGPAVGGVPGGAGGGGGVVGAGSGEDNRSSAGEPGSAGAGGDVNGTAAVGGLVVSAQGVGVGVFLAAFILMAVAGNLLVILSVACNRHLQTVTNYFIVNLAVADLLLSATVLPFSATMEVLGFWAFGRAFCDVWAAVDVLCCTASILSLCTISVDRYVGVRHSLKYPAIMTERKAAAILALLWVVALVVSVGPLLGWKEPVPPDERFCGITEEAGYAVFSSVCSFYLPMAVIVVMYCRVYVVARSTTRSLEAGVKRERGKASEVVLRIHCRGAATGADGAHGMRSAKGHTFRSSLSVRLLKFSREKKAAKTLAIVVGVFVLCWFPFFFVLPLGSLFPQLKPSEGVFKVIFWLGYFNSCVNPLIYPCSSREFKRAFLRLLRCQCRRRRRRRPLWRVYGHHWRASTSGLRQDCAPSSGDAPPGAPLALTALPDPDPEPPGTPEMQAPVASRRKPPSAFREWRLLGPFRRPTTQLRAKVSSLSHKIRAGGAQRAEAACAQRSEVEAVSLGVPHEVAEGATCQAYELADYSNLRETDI
Described as above. As to the method: as §1, §3, §2

Data set [5] has as its target T1, α2C Human Adrenergic Receptor. Format: cell-based. On the set-up: The entire coding region of α2C (1383 bp), including 2 bp of 5′ UT and 400 bp of 3′ UT; expressed in transfected cells; host or cells: LM(tk-) cells. The note with it: for I.A Alpha-2 C: functional cAMP assay. Here is the method: as §1
The insert housing this coding region was an @ 1.8 kb Ncol/EcoRI human spleen genomic fragment which was end-blunted by either T4 polymerase or Klenow fragment of DNA polymerase. Stable cell lines were selected as described above.
(§4) The agonist activity (expressed as pEC50) was measured as a function of the ability to inhibit the forskolin-stimulated synthesis of cyclic adenosine monophosphate (cAMP). The stably transfected cells were incubated in Ham's F10 with 5 mM theophylline, 10 mM HEPES, 10 μM pargyline, and/or appropriate concentrations of forskolin for 20 min at 37° C. in 5% CO2. The tested compounds were then added to a final concentration of 0.001 nM to 1 μM and incubated for an additional 15 min at 37° C. in 5% CO2. The medium was aspirated and the reaction was stopped by the addition of 100 mM HCl . […] The plates are stored at 4° C. for 15 min and assayed to determine the linear concentration of cAMP. The appropriate dilution is interpolated from the standard curve of cold cAMP. The assessment of cAMP formation is determined by radioimmunoassay (cAMP radioimmunoassay kit; Advanced Magnetics, Cambridge, Mass.). Radioactivity was quantified using a Packard COBRA Auto Gamma counter, equipped with data reduction software.
Background: Changes in cAMP serve as a functional read-out for many G protein-coupled receptors.

Data set [6] concerns the target T2, α2B Human Adrenergic Receptor. The format is cell-based. Here is the method:
as §1, §2, §4

Where [7] appears, read: cloned human receptor, [3H] rauwolscine, read-out: pKi Alpha-2 B (converted).
The mark [8] stands for this setting: inhibition of forskolin-stimulated cAMP, NA: Not Active, read-out: pEC50 Alpha-2 C (converted).

SMILES strings stand for the structures. Where a name gives a salt, the structure may show the parent alone. Read-outs that look alike come from different tables or passages of the source.

For the compound `Clc1c(NC2=NCCN2)ccc2nc[nH]c12` (as salt: fumarate) [Example 3, 4-Chloro-5-(2-imidazolin-2-ylamino)Benzimidazole], the melting point is 207 to 208 °C.

The compound `CC(C)c1nc2ccc(NC3=NCCN3)c(Br)c2[nH]1` (as salt: fumarate) [Example 44, 2-Isopropyl-4-bromo-5-(2-imidazolin-2-ylamino)Benzimidazole] returned a melting point of 176 to 178 °C.

With `CC(C)n1cnc2c(I)c(NC3=NCCN3)ccc21` [Example 19, 1-lsopropyl-4-Iodo-5-(2-imidazolin-2-ylamino)Benzimidazole], the Ki in data set [1] is 129 nM; in data set [2] (setting [7]) it was 214 nM.

Consider `CCCn1cnc2cc(NC3=NCCN3)ccc21` [Example 13, 1-Propyl-5-(2-imidazolin-2-ylamino)Benzimidazole], for which the Ki in data set [1] is 398 nM; in data set [3] (read-out: pKi Alpha-1 B (converted)), 93300 nM; in data set [4], 10500 nM; in data set [2], 363 nM.

The compound `Clc1cc(NC2=NCCN2)c(Br)c2[nH]cnc12` (as salt: fumarate) [Example 60, 4-Bromo-7-chloro-5-(2-imidazolin-2-ylamino)Benzimidazole] yielded a melting point of 244 to 246 °C.

For the compound `Cc1cc(NC2=NCCN2)cc2[nH]cnc12` [Example 52, 7-Methyl-5-(2-imidazolin-2-ylamino)Benzimidazole], the “I.A Alpha-2 C” value in data set [5] is recorded as 1.00. In data set [6], the EC50 was 72.4 nM and the “I.A Alpha-2 B” value was 0.80. This compound had a Ki in data set [2] of 77.6 nM.

`CCc1cc(NC2=NCCN2)cc2[nH]cnc12` [Example 55, 7-Ethyl-5-(2-imidazolin-2-ylamino)Benzimidazole]: in data set [5], the “I.A Alpha-2 C” value is on record as 0.80. For the same compound, in data set [5] (setting [8]), the EC50 is 162 nM. In addition, the Ki in data set [1] is 427 nM; in data set [2], 209 nM.

As to `Brc1cc(NC2=NCCN2)cc2[nH]cnc12` [Example 51, 7-Bromo-5-(2-imidazolin-2-ylamino)Benzimidazole], in data set [5], the EC50 is 4.27 nM and the “I.A Alpha-2 C” value came to 1.00. Also, in data set [6], the EC50 is 89.1 nM and the “I.A Alpha-2 B” value is reported as 0.60. The compound further had a Ki in data set [1] of 123 nM. Moreover, the Ki in data set [2] is 27.5 nM.

As for `Clc1cccc(Cl)c1N=C1NCCN1` [Clonidine, reference compound], the “pKi Alpha-1 B” value in data set [3] was determined as 5.62. For the same compound, in data set [4] (cloned human receptor, [3H] prazosin, read-out: pKi Alpha-1 A (converted)), the Ki was 513 nM.

Regarding `Brc1c(NC2=NCCN2)ccc2c1ncn2CC1CCCCC1` [Example 30, 1-Cyclohexylmethyl-4-bromo-5-(2-imidazolin-2-ylamino)Benzimidazole], the Ki in data set [1] is 309 nM; in data set [2] (setting [7]), 166 nM.

For `CCc1c(NC2=NCCN2)ccc2nc[nH]c12` [Example 6, 4-Ethyl-5-(2-imidazolin-2-ylamino)Benzimidazole], in data set [5], the EC50 was 3.98 nM and the “I.A Alpha-2 C” value is 1.00. Besides, in data set [6], the EC50 is 22.4 nM and the “I.A Alpha-2 B” value is on record as 1.00. Besides, the Ki in data set [1] was 47.9 nM. The same compound gave a Ki in data set [2] of 22.4 nM.

On to `COc1cccc(Cn2cnc3c(Br)c(NC4=NCCN4)ccc32)c1` [Example 37, 1-(3-Methoxybenzyl)-4-bromo-5-(2-imidazolin-2-ylamino)Benzimidazole], for which the “I.A Alpha-2 C” value in data set [5] is 0.50. In data set [5] (setting [8]), the EC50 is 52.5 nM. The Ki in data set [1] was 117 nM; in data set [2] (setting [7]) it was 81.3 nM.

In the case of `Cc1cc2nc[nH]c2cc1NC1=NCCN1` [Example 49, 6-Methyl-5-(2-imidazolin-2-ylamino)Benzimidazole], the “I.A Alpha-2 C” value in data set [5] came out at 1.00. Besides, the Ki in data set [2] was 36.3 nM.

In the case of `c1ccc(-c2cc(NC3=NCCN3)cc3[nH]cnc23)cc1` [Example 57, 7-Phenyl-5-(2-imidazolin-2-ylamino)Benzimidazole], the EC50 in data set [5] (setting [8]) is 15.1 nM; in data set [6] (inhibition of forskolin-stimulated cAMP, NA: Not Active, read-out: pEC50 Alpha-2 B (converted)) it was 8510 nM. Moreover, the “I.A Alpha-2 B” value in data set [6] (functional cAMP assay) is on record as 1.00. Further, the Ki in data set [1] was 135 nM; in data set [2] (setting [7]), 60.3 nM.

Regarding `Brc1c(NC2=NCCN2)ccc2nc(C3CC3)[nH]c12` [Example 47, 2-Cyclopropyl-4-bromo-5-(2-imidazolin-2-ylamino)Benzimidazole], the EC50 in data set [5] was 45.7 nM; in data set [6], 115 nM. Also, the Ki in data set [1] is 224 nM; in data set [2] it was 44.7 nM.

As a reminder, the melting point is the temperature, or range, at which the solid turns liquid.
